According to patent EP4813989A1, “CRYSTAL, PHARMACEUTICAL COMPOSITION, PREPARATION METHOD THEREFOR, AND USE THEREOF” (TYK Medicines, Inc., priority 2023, dated 2025):

Key:
Assay type in all cases: physicochemical
[1] = Dynamic vapor sorption (DVS) hygroscopicity
Protocol: Dynamic vapor sorption (DVS) was used to investigate hygroscopicities of an active pharmaceutical ingredient in different crystal forms.
Determination method: • instrument: dynamic vapor sorption analyzer; temperature: 25°C; protective gas and flow rate: N2, 200 mL/min; • dm/dt: 0.002%/min; RH range: 0%RH-100%RH; cycle: 1 full cycle.

[2] = High-humidity test, related substances by HPLC; conditions: 90%RH±5%RH; for Impurity content RRT0.55 / Impurity content RRT0.66 / Impurity content RRT0.71 / Impurity content RRT0.94 / Impurity content RRT1.02 / Impurity content RRT1.06 / Impurity content RRT1.08 / Impurity content RRT1.15 / Total impurities: open
Text: An investigation method for the high-humidity test can be seen in Table 12 below.
Results of related substances in each crystal form under the high-humidity condition (90%RH±5%RH) can be seen in Table 16.
HPLC detection results of related substances under the high-humidity condition can be seen as follows: Table 16

[3] = Light exposure test, related substances by HPLC
Text: An investigation method for the light exposure test can be seen in Table 13 below.
Results of related substances in each crystal form under the light exposure condition (4500lx±500lx) can be seen in Table 17.
HPLC detection results of related substances under the light exposure condition can be seen as follows: Table 17

C[C@@H](Nc1ccn2ncc(C3=NOC(C)(C)N3)c2n1)c1cc(F)cc(F)c1F [crystal form E]
Hygroscopicity (conclusion) [1]: had hygroscopicity
DVS weight loss ([1]; humidity 20% or less): up to 3%
DVS weight loss ([1]; humidity increased from 0% to 30%): approximately 2%
DVS weight gain ([1]; humidity increased from 90% to 100%): approximately 4%
DVS weight loss ([1]; humidity reduced from 100% to 90%): approximately 2%
Increase of impurity RRT1.02 content ([2]; 32 days): no essential changes
Increase of impurity RRT1.08 content ([2]; 32 days): 0.04%
Increase of total impurities ([2]; 32 days): 0.05%
Impurity content RRT0.55 ([2]; 0 day): 0.04%
Impurity content RRT0.66 ([2]; 0 day): 0.21%
Impurity content RRT0.71 ([2]; 0 day): 0.14%
Impurity content RRT0.94 ([2]; 0 day): 0.03%
Impurity content RRT1.02 ([2]; 0 day): 0.21%
Impurity content RRT1.06 ([2]; 0 day): 0.07%
Impurity content RRT1.08 ([2]; 0 day): 0.17%
Impurity content RRT1.15 ([2]; 0 day): 0.03%
Total impurities ([2]; 0 day): 0.89%
Impurity content RRT0.55 ([2]; 5 days): 0.03%
Impurity content RRT0.66 ([2]; 5 days): 0.21%
Impurity content RRT0.71 ([2]; 5 days): 0.15%
Impurity content RRT0.94 ([2]; 5 days): 0.03%
Impurity content RRT1.02 ([2]; 5 days): 0.21%
Impurity content RRT1.06 ([2]; 5 days): 0.05%
Impurity content RRT1.08 ([2]; 5 days): 0.18%
Impurity content RRT1.15 ([2]; 5 days): 0.03%
Total impurities ([2]; 5 days): 0.89%
Impurity content RRT0.55 ([2]; 11 days): 0.04%
Impurity content RRT0.66 ([2]; 11 days): 0.21%
Impurity content RRT0.71 ([2]; 11 days): 0.14%
Impurity content RRT0.94 ([2]; 11 days): 0.02%
Impurity content RRT1.02 ([2]; 11 days): 0.20%
Impurity content RRT1.06 ([2]; 11 days): 0.05%
Impurity content RRT1.08 ([2]; 11 days): 0.21%
Impurity content RRT1.15 ([2]; 11 days): 0.03%
Total impurities ([2]; 11 days): 0.89%
Impurity content RRT0.55 ([2]; 32 days): 0.04%
Impurity content RRT0.66 ([2]; 32 days): 0.22%
Impurity content RRT0.71 ([2]; 32 days): 0.15%
Impurity content RRT0.94 ([2]; 32 days): 0.05%
Impurity content RRT1.02 ([2]; 32 days): 0.19%
Impurity content RRT1.06 ([2]; 32 days): 0.04%
Impurity content RRT1.08 ([2]; 32 days): 0.21%
Impurity content RRT1.15 ([2]; 32 days): 0.04%
Total impurities ([2]; 32 days): 0.94%
Increase of impurity RRT0.66 content ([3]; 4500 lx±500 lx, 32 days): 0.04%
Increase of impurity RRT0.71 content ([3]; 4500 lx±500 lx, 32 days): not increased
Increase of impurity RRT1.02 content ([3]; 4500 lx±500 lx, 32 days): not increased
Increase of impurity RRT1.08 content ([3]; 4500 lx±500 lx, 32 days): 0.08%
Increase of total impurities ([3]; 4500 lx±500 lx, 32 days): 0.13%
Impurity content RRT0.55 ([3]; 4500lx±500lx, open, 0 day): 0.04%
Impurity content RRT0.66 ([3]; 4500lx±500lx, open, 0 day): 0.21%
Impurity content RRT0.71 ([3]; 4500lx±500lx, open, 0 day): 0.14%
Impurity content RRT0.94 ([3]; 4500lx±500lx, open, 0 day): 0.03%
Impurity content RRT1.02 ([3]; 4500lx±500lx, open, 0 day): 0.21%
Impurity content RRT1.06 ([3]; 4500lx±500lx, open, 0 day): 0.07%
Impurity content RRT1.08 ([3]; 4500lx±500lx, open, 0 day): 0.17%
Impurity content RRT1.15 ([3]; 4500lx±500lx, open, 0 day): 0.03%
Total impurities ([3]; 4500lx±500lx, open, 0 day): 0.89%
Impurity content RRT0.55 ([3]; 4500lx±500lx, open, 5 days): 0.03%
Impurity content RRT0.66 ([3]; 4500lx±500lx, open, 5 days): 0.22%
Impurity content RRT0.71 ([3]; 4500lx±500lx, open, 5 days): 0.14%
Impurity content RRT0.94 ([3]; 4500lx±500lx, open, 5 days): 0.02%
